Assay results from patent US20200113181A1, “HERBICIDAL COMPOUNDS” (SYNGENTA PARTICIPATIONS AG, priority 2016, published 2020).

Columns and labels:
Assay type in all cases: in vivo
Setaria faberi (SETFA) = assay: Glasshouse herbicide test, pre- and post-emergence, Setaria faberi; details: 250 g/h, evaluated after 13 days; for SETFA POST, percentage damage caused to the plant (five point scale): post-emergence; for SETFA PRE, percentage damage caused to the plant (five point scale): pre-emergence
Experimental: (§1) Seeds of a variety of test species are sown in standard soil in pots (Lolium perenne (LOLPE), Setaria faberi (SETFA), Alopecurus myosuroides (ALOMY), Echinochloa crus-galli (ECHCG), Avena fatua (AVEFA)). After cultivation for one day (pre-emergence) or after 8 days cultivation (post-emergence) under controlled conditions in a glasshouse (at 24/16° C., day/night; 14 hours light; 65% humidity), the plants are sprayed with an aqueous spray solution derived from the formulation of the technical active ingredient in acetone/water (50:50) solution containing 0.5% Tween 20 (polyoxyethelyene sorbitan monolaurate, CAS RN 9005-64-5). Compounds are applied at […]. The test plants are then grown in a glasshouse under controlled conditions in a glasshouse (at 24/16° C., day/night; 14 hours light; 65% humidity) and watered twice daily. After 13 days for pre and post-emergence, the test is evaluated for the percentage damage caused to the plant. The biological activities are shown in the following table on a five point scale (5=80-100%; 4=60-79%; 3=40-59%; 2=20-39%; 1=0-19%).

Avena fatua (AVEFA) = assay: Glasshouse herbicide test, pre- and post-emergence, Avena fatua; details: 250 g/h, evaluated after 13 days; for AVEFA POST, percentage damage caused to the plant (five point scale): post-emergence; for AVEFA PRE, percentage damage caused to the plant (five point scale): pre-emergence
Experimental: as §1

[1] = test system: Alopecurus myosuroides (ALOMY); assay: Glasshouse herbicide test, pre- and post-emergence, Alopecurus myosuroides; details: 250 g/h, evaluated after 13 days; for ALOMY POST, percentage damage caused to the plant (five point scale): post-emergence; for ALOMY PRE, percentage damage caused to the plant (five point scale): pre-emergence
Experimental: as §1

Lolium perenne (LOLPE) = assay: Glasshouse herbicide test, pre- and post-emergence, Lolium perenne; details: 250 g/h, evaluated after 13 days; for LOLPE POST, percentage damage caused to the plant (five point scale): post-emergence; for LOLPE PRE, percentage damage caused to the plant (five point scale): pre-emergence
Experimental: as §1

[2] = test system: Echinochloa crus-galli (ECHCG); assay: Glasshouse herbicide test, pre- and post-emergence, Echinochloa crus-galli; details: 250 g/h, evaluated after 13 days; for ECHCG POST, percentage damage caused to the plant (five point scale): post-emergence; for ECHCG PRE, percentage damage caused to the plant (five point scale): pre-emergence
Experimental: as §1

CC#Cc1ccc(C2C(=O)[C@@H]3[C@@H]4O[C@@H](C[C@@H]4C)[C@@H]3C2=O)c(OC)c1 (mixture of isomers) [Compound 1.3]
5 (5=80-100%): SETFA POST, percentage damage caused to the plant (five point scale) (Setaria faberi (SETFA)) | SETFA PRE, percentage damage caused to the plant (five point scale) (Setaria faberi (SETFA)) | AVEFA POST, percentage damage caused to the plant (five point scale) (Avena fatua (AVEFA)) | AVEFA PRE, percentage damage caused to the plant (five point scale) (Avena fatua (AVEFA)) | ALOMY POST, percentage damage caused to the plant (five point scale) [1] | ALOMY PRE, percentage damage caused to the plant (five point scale) [1] | LOLPE POST, percentage damage caused to the plant (five point scale) (Lolium perenne (LOLPE)) | LOLPE PRE, percentage damage caused to the plant (five point scale) (Lolium perenne (LOLPE)) | ECHCG POST, percentage damage caused to the plant (five point scale) [2] | ECHCG PRE, percentage damage caused to the plant (five point scale) [2]

CC#Cc1ccc(C2C(=O)[C@@H]3[C@@H]4O[C@@H](C[C@@H]4COC)[C@@H]3C2=O)c(OC)c1 (stereo in doubt) [Compound 1.19, 8-methoxymethyl-4-[2-methoxy-4-(prop-1-yn-1-yl)phenyl]-10-oxatricyclo[5.2.1.0^2,6]decane-3,5-dione]
5 (5=80-100%): SETFA POST, percentage damage caused to the plant (five point scale) (Setaria faberi (SETFA)) | SETFA PRE, percentage damage caused to the plant (five point scale) (Setaria faberi (SETFA)) | AVEFA POST, percentage damage caused to the plant (five point scale) (Avena fatua (AVEFA)) | AVEFA PRE, percentage damage caused to the plant (five point scale) (Avena fatua (AVEFA)) | ALOMY POST, percentage damage caused to the plant (five point scale) [1] | ALOMY PRE, percentage damage caused to the plant (five point scale) [1] | LOLPE POST, percentage damage caused to the plant (five point scale) (Lolium perenne (LOLPE)) | LOLPE PRE, percentage damage caused to the plant (five point scale) (Lolium perenne (LOLPE)) | ECHCG POST, percentage damage caused to the plant (five point scale) [2] | ECHCG PRE, percentage damage caused to the plant (five point scale) [2]

CC#Cc1ccc(C2C(=O)[C@@H]3[C@@H]4O[C@@H](C[C@H]4CC)[C@@H]3C2=O)c(OC)c1 (stereo partly drawn) [Compound 1.23]
5 (5=80-100%): SETFA POST, percentage damage caused to the plant (five point scale) (Setaria faberi (SETFA)) | SETFA PRE, percentage damage caused to the plant (five point scale) (Setaria faberi (SETFA)) | AVEFA POST, percentage damage caused to the plant (five point scale) (Avena fatua (AVEFA)) | AVEFA PRE, percentage damage caused to the plant (five point scale) (Avena fatua (AVEFA)) | ALOMY POST, percentage damage caused to the plant (five point scale) [1] | ALOMY PRE, percentage damage caused to the plant (five point scale) [1] | LOLPE POST, percentage damage caused to the plant (five point scale) (Lolium perenne (LOLPE)) | LOLPE PRE, percentage damage caused to the plant (five point scale) (Lolium perenne (LOLPE)) | ECHCG POST, percentage damage caused to the plant (five point scale) [2] | ECHCG PRE, percentage damage caused to the plant (five point scale) [2]

CC#Cc1ccc(C2=C(OC(=O)OC)[C@@H]3[C@H](C2=O)[C@@H]2O[C@H]3C[C@@H]2COC)c(OC)c1 (racemic) [Compound 1.28]
5 (5=80-100%): SETFA POST, percentage damage caused to the plant (five point scale) (Setaria faberi (SETFA)) | SETFA PRE, percentage damage caused to the plant (five point scale) (Setaria faberi (SETFA)) | AVEFA POST, percentage damage caused to the plant (five point scale) (Avena fatua (AVEFA)) | AVEFA PRE, percentage damage caused to the plant (five point scale) (Avena fatua (AVEFA)) | ALOMY POST, percentage damage caused to the plant (five point scale) [1] | ALOMY PRE, percentage damage caused to the plant (five point scale) [1] | LOLPE POST, percentage damage caused to the plant (five point scale) (Lolium perenne (LOLPE)) | LOLPE PRE, percentage damage caused to the plant (five point scale) (Lolium perenne (LOLPE)) | ECHCG POST, percentage damage caused to the plant (five point scale) [2] | ECHCG PRE, percentage damage caused to the plant (five point scale) [2]

CC#Cc1ccc(C2=C(OC(=O)C(C)C)[C@@H]3[C@H](C2=O)[C@H]2CC[C@@H]3O2)c(OC)c1 (racemic) [Compound 1.1, isobutyric acid 4-(2-methoxy-4-prop-1-ynyl-phenyl)-5-oxo-10-oxa-tricyclo[5.2.1.0^2,6]dec-3-en-3-yl ester]
5 (5=80-100%): SETFA POST, percentage damage caused to the plant (five point scale) (Setaria faberi (SETFA)) | SETFA PRE, percentage damage caused to the plant (five point scale) (Setaria faberi (SETFA)) | AVEFA POST, percentage damage caused to the plant (five point scale) (Avena fatua (AVEFA)) | AVEFA PRE, percentage damage caused to the plant (five point scale) (Avena fatua (AVEFA)) | LOLPE POST, percentage damage caused to the plant (five point scale) (Lolium perenne (LOLPE)) | LOLPE PRE, percentage damage caused to the plant (five point scale) (Lolium perenne (LOLPE)) | ECHCG POST, percentage damage caused to the plant (five point scale) [2] | ECHCG PRE, percentage damage caused to the plant (five point scale) [2]
